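Five compound concentrations were applied to cells in 96-well plates for 48 hours; endpoints were derived by simple linear interpolation of the resulting dose-response curve. Definition used: TGI = concentration required for complete inhibition of growth.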
Assays:
Test in all cases: NCI anticancer screen, dose series, 48 h
UACC-257 melanoma = tested on: UACC-257 melanoma
NCI-H23 lung = tested on: NCI-H23 lung
HOP-62 NSCLC = tested on: HOP-62 NSCLC
T-47D breast = tested on: T-47D breast
SNB-75 CNS = tested on: SNB-75 CNS
SW-620 colon = tested on: SW-620 colon
MDA-MB-231 breast = tested on: MDA-MB-231 breast
HCC-2998 colon = tested on: HCC-2998 colon
SF-539 CNS = tested on: SF-539 CNS
SF-295 CNS = tested on: SF-295 CNS
MDA-MB-435 = tested on: MDA-MB-435
UO-31 renal = tested on: UO-31 renal
NCI/ADR-RES ovarian = tested on: NCI/ADR-RES ovarian
U251 CNS = tested on: U251 CNS
HCT-116 colon = tested on: HCT-116 colon
SNB-19 CNS = tested on: SNB-19 CNS
EKVX NSCLC = tested on: EKVX NSCLC
OVCAR-3 ovarian = tested on: OVCAR-3 ovarian
DU-145 prostate = tested on: DU-145 prostate
MCF7 breast = tested on: MCF7 breast
NCI-H522 lung = tested on: NCI-H522 lung
IGROV1 ovarian = tested on: IGROV1 ovarian
M14 melanoma = tested on: M14 melanoma
KM12 colon = tested on: KM12 colon
SF-268 CNS = tested on: SF-268 CNS
K-562 leukemia = tested on: K-562 leukemia
BT-549 breast = tested on: BT-549 breast
HT29 colon = tested on: HT29 colon
UACC-62 melanoma = tested on: UACC-62 melanoma
MDA-N = tested on: MDA-N
PC-3 prostate = tested on: PC-3 prostate
ACHN renal = tested on: ACHN renal
RPMI-8226 leukemia = tested on: RPMI-8226 leukemia
OVCAR-5 ovarian = tested on: OVCAR-5 ovarian
TK-10 renal = tested on: TK-10 renal
SK-OV-3 ovarian = tested on: SK-OV-3 ovarian
OVCAR-8 ovarian = tested on: OVCAR-8 ovarian
MOLT-4 leukemia = tested on: MOLT-4 leukemia
OVCAR-4 ovarian = tested on: OVCAR-4 ovarian
786-0 renal = tested on: 786-0 renal
MALME-3M melanoma = tested on: MALME-3M melanoma
SK-MEL-28 melanoma = tested on: SK-MEL-28 melanoma
A498 renal = tested on: A498 renal
LOX IMVI melanoma = tested on: LOX IMVI melanoma
SR leukemia = tested on: SR leukemia
HS 578T breast = tested on: HS 578T breast
RXF 393 renal = tested on: RXF 393 renal
COLO 205 colon = tested on: COLO 205 colon
HCT-15 colon = tested on: HCT-15 colon
NCI-H226 lung = tested on: NCI-H226 lung
SN12C renal = tested on: SN12C renal
NCI-H460 lung = tested on: NCI-H460 lung
SK-MEL-5 melanoma = tested on: SK-MEL-5 melanoma
HOP-92 NSCLC = tested on: HOP-92 NSCLC
SK-MEL-2 melanoma = tested on: SK-MEL-2 melanoma
A549 NSCLC = tested on: A549 NSCLC
CAKI-1 renal = tested on: CAKI-1 renal

CN(C)CCn1c(=O)nc2c3c(c([N+](=O)[O-])ccc31)Nc1ccc(O)cc1-2
TGI (UACC-257 melanoma): > 54.9 µM | TGI (NCI-H23 lung): 33.4 µM | TGI (HOP-62 NSCLC): 16.6 µM | TGI (T-47D breast): 6.48 µM | TGI (SNB-75 CNS): 21.2 µM | TGI (SW-620 colon): > 42.6 µM | TGI (MDA-MB-231 breast): 10.2 µM | TGI (HCC-2998 colon): 13.1 µM | TGI (SF-539 CNS): 8.36 µM | TGI (SF-295 CNS): 24.8 µM | TGI (MDA-MB-435): 46.6 µM | TGI (UO-31 renal): 28.7 µM | TGI (NCI/ADR-RES ovarian): > 100 µM | TGI (U251 CNS): 6.26 µM | TGI (HCT-116 colon): 8.37 µM | TGI (SNB-19 CNS): 16.8 µM | TGI (EKVX NSCLC): > 63.6 µM | TGI (OVCAR-3 ovarian): 15.3 µM | TGI (DU-145 prostate): > 47.5 µM | TGI (MCF7 breast): 5.68 µM | TGI (NCI-H522 lung): 6.13 µM | TGI (IGROV1 ovarian): 12.3 µM | TGI (M14 melanoma): > 49.3 µM | TGI (KM12 colon): > 27.5 µM | TGI (SF-268 CNS): 17.1 µM | TGI (K-562 leukemia): > 25.7 µM | TGI (BT-549 breast): 37 µM | TGI (HT29 colon): 15.3 µM | TGI (UACC-62 melanoma): 23.2 µM | TGI (MDA-N): 23.7 µM | TGI (PC-3 prostate): > 46.9 µM | TGI (ACHN renal): 17.4 µM | TGI (RPMI-8226 leukemia): 26.6 µM | TGI (OVCAR-5 ovarian): > 81.2 µM | TGI (TK-10 renal): 36 µM | TGI (SK-OV-3 ovarian): 35.1 µM | TGI (OVCAR-8 ovarian): 11.4 µM | TGI (MOLT-4 leukemia): 3.6 µM | TGI (OVCAR-4 ovarian): > 42.7 µM | TGI (786-0 renal): 6.52 µM | TGI (MALME-3M melanoma): 18 µM | TGI (SK-MEL-28 melanoma): 32.7 µM | TGI (A498 renal): 23.4 µM | TGI (LOX IMVI melanoma): 3.15 µM | TGI (SR leukemia): 8.92 µM | TGI (HS 578T breast): 22.4 µM | TGI (RXF 393 renal): 10.5 µM | TGI (COLO 205 colon): 14.5 µM | TGI (HCT-15 colon): > 100 µM | TGI (NCI-H226 lung): 20.8 µM | TGI (SN12C renal): 17.1 µM | TGI (NCI-H460 lung): 15.6 µM | TGI (SK-MEL-5 melanoma): 20.1 µM | TGI (HOP-92 NSCLC): 16.2 µM | TGI (SK-MEL-2 melanoma): 33.6 µM | TGI (A549 NSCLC): 27.8 µM | TGI (CAKI-1 renal): > 45.7 µM

Source: PubChem BioAssay (NCI)
